From the NIST ThermoML archive (doi:10.1016/j.jct.2015.05.028)

Assay: mn = molality of the nth substance listed, in mol/kg
Settings: 99.6 kPa, Liquid, Vibrating tube method

CCN1C(=O)N(CC)C2NC(=O)NC21 (stereo not given) + O
mass density [kg/m3]
Settings	278.15 K	288.15 K	298.15 K	308.15 K	318.15 K
m1 = 0.01158	1000.48	999.594	997.533	994.508	990.681
m1 = 0.01315	1000.54	999.667	997.589	994.565	990.747
m1 = 0.01794	1000.76	999.871	997.801	994.774	990.935
m1 = 0.02385	1001.02	1000.12	998.052	995.029	991.185
m1 = 0.02832	1001.21	1000.32	998.231	995.196	991.363
m1 = 0.03477	1001.5	1000.6	998.521	995.477	991.629
m1 = 0.04062	1001.76	1000.85	998.752	995.71	991.866
m1 = 0.04476	1001.95	1001.03	998.934	995.885	992.035
m1 = 0.04841	1002.11	1001.18	999.081	996.03	992.176
m1 = 0.0537	1002.35	1001.42	999.318	996.256	992.398
m1 = 0.05905	1002.58	1001.63	999.528	996.468	992.605
m1 = 0.06432	1002.81	1001.87	999.742	996.678	992.818
m1 = 0.06647	1002.9	1001.96	999.836	996.759	992.893
m1 = 0.06907	1003.01	1002.07	999.94	996.876	993.011
